Measured values published in US6818228B1 (priority 1996, dated 2004).

What was measured:
[1] = helium displacement
[2] = B.E.T.
[3] = Bulk density (tapped cylinder); details: nearly dry material before granulation

Structure (SMILES) | true density [1] | surface area [2] | density (bulk) [3] | surface area as fraction of that of commercial calcium citrate tetrahydrate [2]
O.O.O.O.O=C([O-])CC(O)(CC(=O)[O-])C(=O)[O-].O=C([O-])CC(O)(CC(=O)[O-])C(=O)[O-].[Ca+2].[Ca+2].[Ca+2] [Pfizer calcium citrate tetrahydrate, calcium citrate tetrahydrate] | about 2.0 g/cc | about 10 m^2/g |  | 
O=C([O-])CC(O)(CC(=O)[O-])C(=O)[O-].O=C([O-])CC(O)(CC(=O)[O-])C(=O)[O-].[Ca+2].[Ca+2].[Ca+2] [calcium citrate] |  |  | 1.1-1.2 g/cc | 1/10
